Data taken from patent US8771665B2 (Cocrystal Discovery, Inc., priority 2010, dated 2014).

molecular target: T1, HCV1b NS5B polymerase delta 21 (Hepatitis C virus genotype 1b, UniProt P26663); assay: RNA-Dependent RNA HCV NS5B (Polymerase) Assay and IC50 Determination; assay type: biochemical; settings: not given
T1 construct: purified HCV1b NS5B polymerase delta 21
In short: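 Purified NS5B Δ21 (0.6 μg) with polyA:U16 template, 10 μM UTP plus α-32P UTP in Tris-HCl pH 7.5, 5 mM MgCl2, 0.5% Triton X-100, 60 min at 23°C with varied compound concentrations. Radiolabelled RNA captured on filters, quantified by phosphorimaging; IC50 from triplicate assays.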

T1 sequence (P26663 2420-2989): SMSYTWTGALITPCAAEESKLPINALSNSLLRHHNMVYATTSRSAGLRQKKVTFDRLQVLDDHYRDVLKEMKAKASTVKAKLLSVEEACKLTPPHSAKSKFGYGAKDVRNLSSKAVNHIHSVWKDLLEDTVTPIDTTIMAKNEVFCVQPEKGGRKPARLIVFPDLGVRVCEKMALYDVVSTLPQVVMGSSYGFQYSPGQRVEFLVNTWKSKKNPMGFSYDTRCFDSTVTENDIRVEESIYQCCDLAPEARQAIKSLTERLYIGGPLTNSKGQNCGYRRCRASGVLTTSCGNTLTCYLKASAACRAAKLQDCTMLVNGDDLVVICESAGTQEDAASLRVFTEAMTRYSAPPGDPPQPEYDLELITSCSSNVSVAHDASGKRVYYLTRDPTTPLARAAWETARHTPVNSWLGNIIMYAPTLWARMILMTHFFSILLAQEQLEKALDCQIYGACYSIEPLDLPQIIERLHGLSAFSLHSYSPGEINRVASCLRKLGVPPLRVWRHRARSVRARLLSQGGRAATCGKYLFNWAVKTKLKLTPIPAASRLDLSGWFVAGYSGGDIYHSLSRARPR

| SMILES | IC50 |
| --- | --- |
| CC1CCC(C2=C(c3cc(-c4ccccc4)sc3C(=O)O)CCN(C(=O)Cc3nc4ccccn4n3)C2)CC1 (stereo not shown) [Example 153, 3-[5-(4-Methyl-cyclohexyl)-1-(2-[1,2,4]triazolo[1,5-a]pyridin-2-yl-acetyl)-1,2,3,6-tetrahydro-pyridin-4-yl]-5-phenyl-thiophene-2-carboxylic acid] | 3 to 10 µM |
| CC1CCC(C2=C(c3cc(-c4ccccc4)sc3C(=O)O)CCN(C(=O)CCc3ccccc3)C2)CC1 (stereo not shown) [Example 076, 3-[5-(4-Methyl-cyclohexyl)-1-(3-phenyl-propanoyl)-1,2,3,6-tetrahydropyridin-4-yl]-5-phenyl-thiophene-2-carboxylic acid] | > 10 µM |
| CC(=O)OCOC(=O)c1sc(-c2ccc(NC(=O)c3cscn3)cc2)cc1C1=C(C2CCC(C)CC2)CN(C)CC1 (stereo not shown) [Example 102, 3-[1-Methyl-5-(4-methyl-cyclohexyl)-1,2,3,6-tetrahydro-pyridin-4-yl]-5-{4-[(thiazole-4-carbonyl)-amino]-phenyl}-thiophene-2-carboxylic acid acetoxymethyl ester] | > 10 µM |
| CC1CCC(C2=C(c3cc(-c4ccc(NC(=O)c5cscn5)c(F)c4)sc3C(=O)O)CCN(C)C2)CC1 (stereo not shown) [Example 059, 5-{3-Fluoro-4-[(thiazole-4-carbonyl)-amino]-phenyl}-3-[1-methyl-5-(4-methyl-cyclohexyl)-1,2,3,6-tetrahydro-pyridin-4-yl]-thiophene-2-carboxylic acid] | < 3 µM |
| CC1CCC(C2=C(c3cc(-c4ccccc4)sc3C(=O)O)CCN(C(=O)Cc3cccc4ccccc34)C2)CC1 (stereo not shown) [Example 097, 3-[5-(4-Methyl-cyclohexyl)-1-(2-naphthalen-1-yl-acetyl)-1,2,3,6-tetrahydro-pyridin-4-yl]-5-phenyl-thiophene-2-carboxylic acid] | > 10 µM |
| Cc1cc(C)n2nc(CN3CCC(c4cc(C#CC(C)(C)C)sc4C(=O)O)=C(C4CCC(C)CC4)C3)nc2n1 (stereo not shown) [Example 128, 5-(3,3-Dimethyl-but-1-ynyl)-3-[1-(5,7-dimethyl-[1,2,4]triazolo[1,5-a]pyrimidin-2-ylmethyl)-5-(4-methyl-cyclohexyl)-1,2,3,6-tetrahydro-pyridin-4-yl]-thiophene-2-carboxylic acid] | < 3 µM |
| CCN1CCC(c2cc(-c3ccc(NC(=O)c4cn(C)cn4)cc3)sc2C(=O)O)=C(C2CCC(C)CC2)C1 (stereo not shown) [Example 057, 3-[1-Ethyl-5-(4-methyl-cyclohexyl)-1,2,3,6-tetrahydro-pyridin-4-yl]-5-{4-[(1-methyl-1H-imidazole-4-carbonyl)-amino]-phenyl}-thiophene-2-carboxylic acid] | < 3 µM |
| CCN1CCC(c2cc(-c3ccc(-c4cc5ncccn5n4)cc3)sc2C(=O)O)=C(C2CCC(C)CC2)C1 (stereo not shown) [Example 015, 3-[1-Ethyl-5-(4-methyl-cyclohexyl)-1,2,3,6-tetrahydro-pyridin-4-yl]-5-(4-pyrazolo[1,5-a]pyrimidin-2-yl-phenyl)-thiophene-2-carboxylic acid] | < 3 µM |
| CCN1CCC(c2cc(-c3ccc(NC(=O)c4csc(C)n4)cc3)sc2C(=O)O)=C(C2CCC(C)CC2)C1 (stereo not shown) [Example 048, 3-[1-Ethyl-5-(4-methyl-cyclohexyl)-1,2,3,6-tetrahydro-pyridin-4-yl]-5-{4-[(2-methyl-thiazole-4-carbonyl)-amino]-phenyl}-thiophene-2-carboxylic acid] | < 3 µM |
| CC1CCC(C2=C(c3cc(C#CC4(c5ccccc5)CC4)sc3C(=O)O)CCN(C)C2)CC1 (stereo not shown) [Example 173, 3-[1-Methyl-5-(4-methyl-cyclohexyl)-1,2,3,6-tetrahydro-pyridin-4-yl]-5-(1-phenyl-cyclopropylethynyl)-thiophene-2-carboxylic acid] | > 10 µM |
| CN1CCC(c2cc(-c3ccccc3)sc2C(=O)O)=C(C2CCC(C(F)(F)F)CC2)C1 (stereo not shown) [Example 064, 3-[1-Methyl-5-(4-trifluoromethyl-cyclohexyl)-1,2,3,6-tetrahydro-pyridin-4-yl]-5-phenyl-thiophene-2-carboxylic acid] | > 10 µM |
| CC1CCC(C2=C(c3cc(-c4ccccc4)sc3C(=O)O)CCN(C(=O)c3nccnc3N)C2)CC1 (stereo not shown) [Example 155, 3-[1-(3-Amino-pyrazine-2-carbonyl)-5-(4-methyl-cyclohexyl)-1,2,3,6-tetrahydro-pyridin-4-yl]-5-phenyl-thiophene-2-carboxylic acid] | > 10 µM |
| CC1CCC(C2=C(c3cc(-c4ccc(NC(=O)c5cscn5)cc4)sc3C(=O)O)CCN(Cc3ccccn3)C2)CC1 (stereo not shown) [Example 131, 3-[5-(4-Methyl-cyclohexyl)-1-pyridin-2-ylmethyl-1,2,3,6-tetrahydro-pyridin-4-yl]-5-{4-[(thiazole-4-carbonyl)-amino]-phenyl}-thiophene-2-carboxylic acid] | < 3 µM |
| CCN1CCC(c2cc(-c3ccc(NC(=O)c4cscn4)cc3)sc2C(=O)O)=C(C2CCC(C)CC2)C1 (stereo not shown) [Example 019, 3-[1-Ethyl-5-(4-methyl-cyclohexyl)-1,2,3,6-tetrahydro-pyridin-4-yl]-5-{4-[(thiazole-4-carbonyl)-amino]-phenyl}-thiophene-2-carboxylic acid] | < 3 µM |
| CC1CCC(C2=C(c3cc(C#CC4(Cc5ccccc5)CC4)sc3C(=O)O)CCN(C)C2)CC1 (stereo not shown) [Example 174, 5-(1-Benzyl-cyclopropylethynyl)-3-[1-methyl-5-(4-methyl-cyclohexyl)-1,2,3,6-tetrahydro-pyridin-4-yl]-thiophene-2-carboxylic acid] | > 10 µM |
| CCN1CCC(c2cc(-c3ccc(C(=O)O)cc3)sc2C(=O)O)=C(C2CCC(C)CC2)C1 (stereo not shown) [Example 035, 5-(4-Carboxy-phenyl)-3-[1-ethyl-5-(4-methyl-cyclohexyl)-1,2,3,6-tetrahydro-pyridin-4-yl]-thiophene-2-carboxylic acid] | < 3 µM |
| CC1CCC(C2=C(c3cc(-c4cc(F)c(NC(=O)c5cscn5)cc4F)sc3C(=O)O)CCN(C)C2)CC1 (stereo not shown) [Example 160, 5-{2,5-Difluoro-4-[(thiazole-4-carbonyl)-amino]-phenyl}-3-[1-methyl-5-(4-methyl-cyclohexyl)-1,2,3,6-tetrahydro-pyridin-4-yl]-thiophene-2-carboxylic acid] | < 3 µM |
| Cc1nn(C)cc1CN1CCC(c2cc(C#CC(C)(C)C)sc2C(=O)O)=C(C2CCC(C)CC2)C1 (stereo not shown) [Example 142, 5-(3,3-Dimethyl-but-1-ynyl)-3-[1-(1,3-dimethyl-1H-pyrazol-4-ylmethyl)-5-(4-methyl-cyclohexyl)-1,2,3,6-tetrahydro-pyridin-4-yl]-thiophene-2-carboxylic acid] | < 3 µM |
| Cc1cc(C)n2nc(CCCN3CCC(c4cc(-c5ccccc5)sc4C(=O)O)=C(C4CCC(C)CC4)C3)nc2n1 (stereo not shown) [Example 091, 3-[1-[3-(5,7-Dimethyl-[1,2,4]triazolo[1,5-a]pyrimidin-2-yl)-propyl]-5-(4-methyl-cyclohexyl)-1,2,3,6-tetrahydro-pyridin-4-yl]-5-phenyl-thiophene-2-carboxylic acid] | < 3 µM |
| Cc1ccc(S(=O)(=O)N2CCC(c3cc(-c4ccccc4)sc3C(=O)O)=C(C3CCC(C)CC3)C2)cc1 (stereo not shown) [Example 036, 3-[5-(4-Methyl-cyclohexyl)-1-(toluene-4-sulfonyl)-1,2,3,6-tetrahydro-pyridin-4-yl]-5-phenyl-thiophene-2-carboxylic acid] | > 10 µM |
| CCN1CCC(c2cc(-c3ccc(NC(C)=O)cc3)sc2C(=O)O)=C(C2CCC(C)CC2)C1 (stereo not shown) [Example 018, 5-(4-Acetylamino-phenyl)-3-[1-ethyl-5-(4-methyl-cyclohexyl)-1,2,3,6-tetrahydro-pyridin-4-yl]-thiophene-2-carboxylic acid] | 3 to 10 µM |
| CC1CCC(C2=C(c3cc(-c4ccccc4)sc3C(=O)O)CCN(Cc3ccccc3)C2)CC1 (stereo not shown) [Example 043, 3-[1-Benzyl-5-(4-methyl-cyclohexyl)-1,2,3,6-tetrahydro-pyridin-4-yl]-5-phenyl-thiophene-2-carboxylic acid] | 3 to 10 µM |
| CCc1cc(CC)n2nc(CN3CCC(c4cc(-c5ccccc5)sc4C(=O)O)=C(C4CCC(C)CC4)C3)nc2n1 (stereo not shown) [Example 150, 3-[1-(5,7-Diethyl-[1,2,4]triazolo[1,5-a]pyrimidin-2-ylmethyl)-5-(4-methyl-cyclohexyl)-1,2,3,6-tetrahydro-pyridin-4-yl]-5-phenyl-thiophene-2-carboxylic acid] | < 3 µM |
| CC1CCC(C2=C(c3cc(-c4ccccc4)sc3C(=O)O)CCN(CCCc3ccccc3)C2)CC1 (stereo not shown) [Example 110, 3-[5-(4-Methyl-cyclohexyl)-1-(4-phenyl-propyl)-1,2,3,6-tetrahydro-pyridin-4-yl]-5-phenyl-thiophene-2-carboxylic acid] | > 10 µM |
| CC1CCC(C2=C(c3cc(-c4ccccc4)sc3C(=O)O)CCN(Cc3c(Cl)cncc3Cl)C2)CC1 (stereo not shown) [Example 146, 3-[1-(3,5-Dichloro-pyridin-4-ylmethyl)-5-(4-methyl-cyclohexyl)-1,2,3,6-tetrahydro-pyridin-4-yl]-5-phenyl-thiophene-2-carboxylic acid] | > 10 µM |
| CC1CCC(C2=C(c3cc(-c4cc(F)c(NC(=O)c5cscn5)c(F)c4)sc3C(=O)O)CCN(C)C2)CC1 (stereo not shown) [Example 166, 5-{3,5-Difluoro-4-[(thiazole-4-carbonyl)-amino]-phenyl}-3-[1-methyl-5-(4-methyl-cyclohexyl)-1,2,3,6-tetrahydro-pyridin-4-yl]-thiophene-2-carboxylic acid] | < 3 µM |
| CCN1CCC(c2cc(-c3ccc(C(=O)Nc4ccccn4)cc3)sc2C(=O)O)=C(C2CCC(C)CC2)C1 (stereo not shown) [Example 062, 3-[1-Ethyl-5-(4-methyl-cyclohexyl)-1,2,3,6-tetrahydro-pyridin-4-yl]-5-[4-(pyridin-2-ylcarbamoyl)-phenyl]-thiophene-2-carboxylic acid] | < 3 µM |

same assay, conditions: purified HCV1b NS5B polymerase delta 21, polyA:U16, RT 60 min, triplicate assays

| SMILES | IC50 |
| --- | --- |
| CC1CCC(C2=C(c3cc(-c4ccccc4)sc3C(=O)O)CCN(Cc3ccccc3)C2)CC1 (stereo not shown) [Example 079, 3-[1-Benzyl-5-(4-methyl-cyclohexyl)-1,2,3,6-tetrahydro-pyridin-4-yl]-5-phenyl-thiophene-2-carboxylic acid] | 3 to 10 µM |
